# Assay results published in paper PMC4624142, “Purification and characterisation of intracellular alpha-galactosidases from Acinetobacter sp” (3 Biotech, 2015).
# Legend:
# Format in all cases: biochemical, Acinetobacter sp.
# Conditions in all cases: 20 mM Tris pH 7.0, 50 °C; unit mM ml^−1 [sic]
# [1] = tested on: T1, alpha-galactosidase I (Ag-I); experiment: p-nitrophenol release at […] nm, Lineweaver-Burk
# T1 construct: native intracellular enzyme purified from Acinetobacter sp. isolate G1 (soil, sugarcane industry, Sangareddy, India); 65 kDa, monomer
# [2] = tested on: T2, alpha-galactosidase II (Ag-II); experiment: p-nitrophenol release at […] nm, Lineweaver-Burk
# T2 construct: native intracellular enzyme purified from Acinetobacter sp. isolate G1 (soil, sugarcane industry, Sangareddy, India); 37 kDa, monomer
# [3] = tested on: T1, alpha-galactosidase I (Ag-I); experiment: reducing sugar (DNS, […] nm), Lineweaver-Burk
# [4] = tested on: T2, alpha-galactosidase II (Ag-II); experiment: reducing sugar (DNS, […] nm), Lineweaver-Burk
Compound,Michaelis constant (K m) mM ml^-1 [1] [mM ml^−1],Michaelis constant (K m) mM ml^-1 [2] [mM ml^−1],Michaelis constant (K m) mM ml^-1 [3] [mM ml^−1],Michaelis constant (K m) mM ml^-1 [4] [mM ml^−1]
"O=[N+]([O-])c1ccc(O[C@H]2O[C@H](CO)[C@H](O)[C@H](O)[C@H]2O)cc1 [ρNPGal, p-Nitrophenyl-α-D-galactopyranoside]",0.33,0.68,,
OC[C@H]1O[C@H](OC[C@H]2O[C@H](O[C@]3(CO)O[C@H](CO)[C@@H](O)[C@@H]3O)[C@H](O)[C@@H](O)[C@@H]2O)[C@H](O)[C@@H](O)[C@H]1O [Raffinose],,,3.26,0.74
